39 compounds from patent publication US20080293749A1, “Pyrrolidine(thi)ones Substituted by Heterocyclic Substituents in The 3-Position” (Gruenenthal GmbH, priority 2005, published 2008) can be followed below.

The structures appear in SMILES notation. Converted amounts (≈) assume the structure as drawn.

As a reminder, the melting point is the temperature of the solid-liquid transition. A word on the IC50: it is the point on the concentration scale where inhibition reaches its midpoint. A lower IC50 goes with higher potency.

For the first data set, the system named is IL-10 production of LPS-activated monocytes. The data set can be described thus: Increase in IL-10 production of LPS-activated human monocytes (sandwich ELISA of culture supernatants). The data set is classed as cell-based. Conditions: Monocyte; human CD14-positive monocytes, 1 h preincubation with test substance, 10 μg/ml LPS from E. coli, 24 hours. The method, then: (§1) Stimulation of human monocytes with lipopolysaccharide for secretion of IL-10 and IL-12:
(§2) Human monocytes were isolated from peripheral blood mononuclear cells (PBMC), which were obtained from heparinized whole blood by means of a Ficoll density gradient centrifugation. For this, the PBMC were incubated with a monoclonal antibody which is directed against the monocyte-specific surface molecule CD14 and to which superparamagnetic microbeads (Miltenyi Biotech, Bergisch Gladbach) are coupled. For positive selection of the labelled monocytes from the cell mixture of the PBMC, the entire cell suspension was applied to a column with a ferromagnetic carrier matrix and this was placed in a magnetic field. The cells loaded with microbeads were thereby bound to the carrier matrix, and non-labelled cells passed through the column and were discarded. After removing the matrix from the magnetic field, the antibody-laden cells were eluted by rinsing the now demagnetized column with buffer. The purity of this CD14-positive monocyte population obtained in this way is about 95-98%. These monocytes were incubated in a density of 10^6 cells/ml of culture medium (RPMI, supplemented with 10% foetal calf serum) with the test substances, dissolved in DMSO, at 37° C. and 5% CO2 for one hour. 10 μg/ml of LPS from E. coli were then added. After 24 hours, cell-free culture supernatants were taken and tested for the content of IL-10 and IL-12.
(§3) The concentration of IL-12 and IL-10 in the cell culture supernatants was determined by means of sandwich ELISAs using two anti-IL-12 and, respectively, IL-10 monoclonal antibodies (Biosource Europe, Fleurus, Belgium). A reference standard curve with human IL-10 and, respectively, IL-12 was included. The detection limit of the ELISAs was 15 pg/ml.
Turning to `O=C1CC(N2C=Nc3cc(F)cc(Cl)c3C2)C(=O)N1` (stereo not drawn) [Example 1, 3-(5-chloro-7-fluoro-4H-quinazolin-3-yl)-pyrrolidine-2,5-dione], the EC200 worked out at 4 µg/mL.

As for `O=C1CC(N2C=Nc3cc(Cl)cc(F)c3C2)C(=O)N1` (stereo not drawn) [Example 2, 3-(7-chloro-5-fluoro-4H-quinazolin-3-yl)-pyrrolidine-2,5-dione], the EC200 was 1 µg/mL. Same read-out and setting: the figure for `O=C1CC(N2C=Nc3cc(F)cc(F)c3C2)C(=O)N1` (stereo not drawn) [Example 4, 3-(5,7-difluoro-4H-quinazolin-3-yl)-pyrrolidine-2,5-dione] is 0.62 µg/mL.

Test system in a further data set: not given
Test: not given
Conditions: not given
`O=C1CC(N2C=Nc3c(Cl)cc(Cl)cc3C2)C(=O)N1` (stereo not drawn) [Example 8e, 3-(6,8-dichloro-4H-quinazolin-3-yl)-pyrrolidine-2,5-dione] gave a melting point of 230 to 232 °C.

For `O=C1CC(N2C=Nc3ccc([N+](=O)[O-])cc3C2)C(=O)N1` (stereo not drawn) [Example 8f, 3-(6-nitro-4H-quinazolin-3-yl)-pyrrolidine-2,5-dione], the melting point was 168 to 172 °C. Still for that read-out and setting: for `O=C1CC(N2C=Nc3cc([N+](=O)[O-])ccc3C2)C(=O)N1` (stereo not drawn) [Example 8h, 3-(7-nitro-4H-quinazolin-3-yl)-pyrrolidine-2,5-dione] the value was 212 to 225 °C. `Cc1cc(Br)c2c(c1)CN(C1CC(=O)NC1=O)C=N2` (stereo not drawn) [Example 8i, 3-(8-bromo-6-methyl-4H-quinazolin-3-yl)-pyrrolidine-2,5-dione] yielded a melting point of 240 to 241 °C. On the same count and under the same terms, the figure for `O=C1CC(N2C=Nc3c(Cl)cccc3C2)C(=O)N1` (stereo not drawn) [Example 8j, 3-(8-chloro-4H-quinazolin-3-yl)-pyrrolidine-2,5-dione] is 194 °C.

Compound `COc1cccc2c1N=CN(C1CC(=O)NC1=O)C2` (stereo not drawn) [Example 8k, 3-(8-methoxy-4H-quinazolin-3-yl)-pyrrolidine-2,5-dione] returned a melting point of 195 to 200 °C. The same measure, in the same setting: for `O=C1CC(N2C=Nc3ccc(OCc4ccccc4)cc3C2)C(=O)N1` (stereo not drawn) [Example 8l, 3-(6-benzyloxy-4H-quinazolin-3-yl)-pyrrolidine-2,5-dione] the value was 171 to 173 °C. On the same count and under the same terms, the figure for `O=C1CC(N2C=Nc3ccc(Cl)c(Cl)c3C2)C(=O)N1` (stereo not drawn) [Example 9a, 3-(5,6-dichloro-4H-quinazolin-3-yl)-pyrrolidine-2,5-dione] is 174 to 178 °C. Same read-out and setting: for `COc1cc2c(cc1OC)N=CN(C1CC(=O)NC1=O)C2` (stereo not drawn) [Example 10b, 3-(6,7-dimethoxy-4H-quinazolin-3-yl)-pyrrolidine-2,5-dione] the value was 189 to 200 °C; for `O=C1CC(N2C=Nc3c(cccc3C(F)(F)F)C2)C(=O)N1` (stereo not drawn) [Example 11c, 3-(8-trifluoromethyl-4H-quinazolin-3-yl)-pyrrolidine-2,5-dione], 188 to 190 °C; for `CN1C(=O)CC(N2C=Nc3ccccc3C2)C1=O` (stereo not drawn) [Example 11d, 1-methyl-3-(4H-quinazolin-3-yl)-pyrrolidine-2,5-dione], 163 to 164 °C. Compound `CN1C(=O)CC(N2C=Nc3cc(F)ccc3C2)C1=O` (stereo not drawn) [Example 11e, 7-fluoro-1-methyl-3-(4H-quinazolin-3-yl)-pyrrolidine-2,5-dione] registered a melting point of 191 to 193 °C. On the same count and under the same terms, for `CCOc1cccc2c1CN(C1CC(=O)NC1=O)C=N2` (stereo not drawn) [Example 12b, 3-(5-ethoxy-4H-quinazolin-3-yl)-pyrrolidine-2,5-dione] the value was 203 to 205 °C; for `CCCCCOc1cccc2c1CN(C1CC(=O)NC1=O)C=N2` (stereo not drawn) [Example 12c, 3-(5-pentyloxy-4H-quinazolin-3-yl)-pyrrolidine-2,5-dione], 154 to 160 °C. Still for that read-out and setting: the figure for `O=C1CC(N2C=Nc3cccc(OCc4ccccc4)c3C2)C(=O)N1` (stereo not drawn) [Example 12d, 3-(5-benzyloxy-4H-quinazolin-3-yl)-pyrrolidine-2,5-dione] is 100 to 108 °C; for `CC(C)Oc1cccc2c1CN(C1CC(=O)NC1=O)C=N2` (stereo not drawn) [Example 12e, 3-(5-isopropoxy-4H-quinazolin-3-yl)-pyrrolidine-2,5-dione] it is 191 to 192 °C. Still for that read-out and setting: the figure for `COCCOc1cccc2c1CN(C1CC(=O)NC1=O)C=N2` (stereo not drawn) [Example 12f, 3-(5-(2-methoxyethoxy)-4H-quinazolin-3-yl)-pyrrolidine-2,5-dione] is 288 to 290 °C. `CC1=Nc2cc(C(F)(F)F)ccc2CN1C1CC(=O)NC1=O` (stereo not drawn) [Example 15aa, 3-(2-methyl-7-trifluoromethyl-4H-quinazolin-3-yl)-pyrrolidine-2,5-dione] yielded a melting point of 205 to 206 °C.

`CC1=Nc2ccc(Cl)c(Cl)c2CN1C1CC(=O)NC1=O` (stereo not drawn) [Example 15c, 3-(5,6-dichloro-2-methyl-4H-quinazolin-3-yl)-pyrrolidine-2,5-dione]: the melting point was 161 to 166 °C.

In turn, `CC1=Nc2cc(Cl)cc(Cl)c2CN1C1CC(=O)NC1=O` (stereo not drawn) [Example 15d, 3-(5,7-dichloro-2-methyl-4H-quinazolin-3-yl)-pyrrolidine-2,5-dione] yielded a melting point of 199 to 201 °C.

Consider `CC1=Nc2cc([N+](=O)[O-])ccc2CN1C1CC(=O)NC1=O` (stereo not drawn) [Example 15ee, 3-(2-methyl-7-nitro-4H-quinazolin-3-yl)-pyrrolidine-2,5-dione], for which the melting point is 203 to 210 °C.

On to `CC1=Nc2c(Cl)ccc(Cl)c2CN1C1CC(=O)NC1=O` (stereo not drawn) [Example 15f, 3-(5,8-dichloro-2-methyl-4H-quinazolin-3-yl)-pyrrolidine-2,5-dione], for which the melting point lay within 186 to 191 °C. `CC1=Nc2c(Br)cc(C)cc2CN1C1CC(=O)NC1=O` (stereo not drawn) [Example 15ff, 3-(8-bromo-2,6-dimethyl-4H-quinazolin-3-yl)-pyrrolidine-2,5-dione]: the melting point was 145 to 150 °C. Same read-out and setting: the figure for `CC1=Nc2c(Cl)cccc2CN1C1CC(=O)NC1=O` (stereo not drawn) [Example 15hh, 3-(8-chloro-2-methyl-4H-quinazolin-3-yl)-pyrrolidine-2,5-dione] is 176 to 178 °C.

As for `CCOc1cccc2c1CN(C1CC(=O)NC1=O)C(C)=N2` (stereo not drawn) [Example 15k, 3-(5-ethoxy-2-methyl-4H-quinazolin-3-yl)-pyrrolidine-2,5-dione], the melting point lay in the range of 130 to 133 °C. On the same count and under the same terms, for `CC1=Nc2cccc(OC(C)C)c2CN1C1CC(=O)NC1=O` (stereo not drawn) [Example 15m, 3-(5-isopropoxy-2-methyl-4H-quinazolin-3-yl)-pyrrolidine-2,5-dione] the value was 116 to 119 °C; for `CC1=Nc2cccc(C)c2CN1C1CC(=O)NC1=O` (stereo not drawn) [Example 15n, 3-(2,5-dimethyl-4H-quinazolin-3-yl)-pyrrolidine-2,5-dione], 200 to 201 °C; for `COc1cccc2c1CN(C1CC(=O)NC1=O)C(C)=N2` (stereo not drawn) [Example 15o, 3-(5-methoxy-2-methyl-4H-quinazolin-3-yl)-pyrrolidine-2,5-dione], 122 °C. The same measure, in the same setting: for `CC1=Nc2cccc([N+](=O)[O-])c2CN1C1CC(=O)NC1=O` (stereo not drawn) [Example 15p, 3-(2-methyl-5-nitro-4H-quinazolin-3-yl)-pyrrolidine-2,5-dione] the value was > 260 °C (dec.). Still for that read-out and setting: the figure for `CCCCCOc1cccc2c1CN(C1CC(=O)NC1=O)C(C)=N2` (stereo not drawn) [Example 15q, 3-(2-methyl-5-pentyloxy-4H-quinazolin-3-yl)-pyrrolidine-2,5-dione] is 154 to 156 °C; for `CC1=Nc2cc3ccccc3cc2CN1C1CC(=O)NC1=O` (stereo not drawn) [Example 15t, 3-(2-methyl-4H-benzo[g]quinazolin-3-yl)-pyrrolidine-2,5-dione] it is 106 to 110 °C; for `COc1cc2c(cc1OC)N=C(C)N(C1CC(=O)NC1=O)C2` (stereo not drawn) [Example 15v, 3-(6,7-dimethoxy-2-methyl-4H-quinazolin-3-yl)-pyrrolidine-2,5-dione] it is 200 to 202 °C. Compound `CC1=Nc2c(Cl)cc(Cl)cc2CN1C1CC(=O)NC1=O` (stereo not drawn) [Example 15w, 3-(6,8-dichloro-2-methyl-4H-quinazolin-3-yl)-pyrrolidine-2,5-dione] showed a melting point of 180 to 182 °C.

With `CC1=Nc2ccc(OCc3ccccc3)cc2CN1C1CC(=O)NC1=O` (stereo not drawn) [Example 15x, 3-(6-benzyloxy-2-methyl-4H-quinazolin-3-yl)-pyrrolidine-2,5-dione], the melting point was 132 to 143 °C. On the same count and under the same terms, for `CC1=Nc2ccc(Cl)cc2CN1C1CC(=O)NC1=O` (stereo not drawn) [Example 15y, 3-(6-chloro-2-methyl-4H-quinazolin-3-yl)-pyrrolidine-2,5-dione] the value was 195 to 203 °C; for `CC1=Nc2ccc([N+](=O)[O-])cc2CN1C1CC(=O)NC1=O` (stereo not drawn) [Example 15z, 3-(2-methyl-6-nitro-4H-quinazolin-3-yl)-pyrrolidine-2,5-dione], 170 to 175 °C.

Another data set has as its system IL-12 production of LPS-activated monocytes. Nature of the data set: Inhibition of IL-12 production of LPS-activated human monocytes (sandwich ELISA of culture supernatants). The data set is classed as cell-based. The note with it: Monocyte; human CD14-positive monocytes, 1 h preincubation with test substance, 10 μg/ml LPS from E. coli, 24 hours. The method, then:
as §1, §2, §3
(An ELISA detects its analyte on a solid surface through an enzyme-linked reagent.)
In turn, `O=C1CC(N2C=Nc3cc(F)cc(Cl)c3C2)C(=O)N1` (stereo not drawn) [Example 1, 3-(5-chloro-7-fluoro-4H-quinazolin-3-yl)-pyrrolidine-2,5-dione] gave an IC50 of 1.5 µg/mL (≈ 5.33 µM). Consider `O=C1CC(N2C=Nc3cc(Cl)cc(F)c3C2)C(=O)N1` (stereo not drawn) [Example 2, 3-(7-chloro-5-fluoro-4H-quinazolin-3-yl)-pyrrolidine-2,5-dione], for which the IC50 is 1.4 µg/mL (≈ 4.97 µM).

Compound `O=C1CC(N2C=Nc3cc(F)cc(F)c3C2)C(=O)N1` (stereo not drawn) [Example 4, 3-(5,7-difluoro-4H-quinazolin-3-yl)-pyrrolidine-2,5-dione] registered an IC50 of 0.107 µg/mL (≈ 0.403 µM).
